Test results reported in US9302991B2, “Arylamide derivatives as TTX-S blockers” (RaQualia Pharma Inc., priority 2010, dated 2016).

Target: T1, human Nav1.3 channels (Homo sapiens, UniProt Q9NY46)
T1 construct: expressed in transfected cells; host or cells: HEK293
Experiment: FRET assay, human Nav1.3 (EFS on FDSS)
Assay type: cell-based
Conditions: HEK293 cells expressing human Nav1.3, read-out: IC50 against Nav1.3
Experimental: The inhibitory activities of compounds against voltage gated sodium channels are determined by methodology well known in the art.
The ability of the aryl substituted carboxamide derivatives of the formula (I) to inhibit the NaV1.3, Nav1.7 and Nav1.5 channels is measured by Fluorescence Resonance Energy Transfer (FRET) assay and electrophysiology assay described below.
This screen is used to determine the effects of compounds on human Nav1.3, human Nav1.7, and human Nav1.5 channels, utilising electrical field stimulation (EFS) system in 96-well plate format on FDSS (Hamamatsu Photonics) platform. The change of membrane potential is monitored with FRET dye pair, oxonol (DiSBAC2(3)) and coumarin (CC2-DMPE).
Each HEK293 cells expressing human Nav1.3 channels and HEK293 cells expressing human Nav1.5 channels are grown in T225 flasks, in a 5% CO2 humidified incubator to about 80% confluence. Media composition consists of Dulbecco's Modified Eagle Medium (high glucose), 10% FCS, 100 units/mL Penicillin, 100 microgram/mL Streptomycin and 500 microgram/mL Geneticine.
Protocol: • Seed each cell lines (1×10^5 cells/well) into poly-D-lysine coated 96-well plates prior to experimentation. • Incubate at 37° C. in 5% CO2 for 24 hours. • Wash each well with assay buffer (140 mM NaCl, 4.5 mM KCl, 10 mM D-Glucose, 2 mM CaCl2, 1 mM MgCl2, 10 mM HEPES, pH 7.4 adjusted with NaOH) twice. • Add 1st loading solution containing 10 microM CC2-DMPE and 0.06% Pluronic F-127 in assay buffer. • Incubate the plate at room temperature in dark for 1 hour. • Remove 1st loading solution and added 2nd loading solution containing 15 microM DiSBAC2(3), 0.555 mM VABSC-1 and 0.004% Pluronic F-127 in assay buffer. • Place the plate under the dark at room temperature for 25 minutes. • Add compound solutions into the assay plate. • Set the assay plate in FDSS and placed an EFS device on the plate. • Measure EFS-induced fluorescent response by FDSS.
The data are analyzed and reported as normalized ratios of intensities measured at […]. The process of calculating these ratios is performed as follows:
This analysis is performed using a computerized specific program designed for FDSS generated data. Fluorescence ratio values are plotted using XLfit to determine an IC50 value for each compound.

T1 sequence (Q9NY46 whole entry): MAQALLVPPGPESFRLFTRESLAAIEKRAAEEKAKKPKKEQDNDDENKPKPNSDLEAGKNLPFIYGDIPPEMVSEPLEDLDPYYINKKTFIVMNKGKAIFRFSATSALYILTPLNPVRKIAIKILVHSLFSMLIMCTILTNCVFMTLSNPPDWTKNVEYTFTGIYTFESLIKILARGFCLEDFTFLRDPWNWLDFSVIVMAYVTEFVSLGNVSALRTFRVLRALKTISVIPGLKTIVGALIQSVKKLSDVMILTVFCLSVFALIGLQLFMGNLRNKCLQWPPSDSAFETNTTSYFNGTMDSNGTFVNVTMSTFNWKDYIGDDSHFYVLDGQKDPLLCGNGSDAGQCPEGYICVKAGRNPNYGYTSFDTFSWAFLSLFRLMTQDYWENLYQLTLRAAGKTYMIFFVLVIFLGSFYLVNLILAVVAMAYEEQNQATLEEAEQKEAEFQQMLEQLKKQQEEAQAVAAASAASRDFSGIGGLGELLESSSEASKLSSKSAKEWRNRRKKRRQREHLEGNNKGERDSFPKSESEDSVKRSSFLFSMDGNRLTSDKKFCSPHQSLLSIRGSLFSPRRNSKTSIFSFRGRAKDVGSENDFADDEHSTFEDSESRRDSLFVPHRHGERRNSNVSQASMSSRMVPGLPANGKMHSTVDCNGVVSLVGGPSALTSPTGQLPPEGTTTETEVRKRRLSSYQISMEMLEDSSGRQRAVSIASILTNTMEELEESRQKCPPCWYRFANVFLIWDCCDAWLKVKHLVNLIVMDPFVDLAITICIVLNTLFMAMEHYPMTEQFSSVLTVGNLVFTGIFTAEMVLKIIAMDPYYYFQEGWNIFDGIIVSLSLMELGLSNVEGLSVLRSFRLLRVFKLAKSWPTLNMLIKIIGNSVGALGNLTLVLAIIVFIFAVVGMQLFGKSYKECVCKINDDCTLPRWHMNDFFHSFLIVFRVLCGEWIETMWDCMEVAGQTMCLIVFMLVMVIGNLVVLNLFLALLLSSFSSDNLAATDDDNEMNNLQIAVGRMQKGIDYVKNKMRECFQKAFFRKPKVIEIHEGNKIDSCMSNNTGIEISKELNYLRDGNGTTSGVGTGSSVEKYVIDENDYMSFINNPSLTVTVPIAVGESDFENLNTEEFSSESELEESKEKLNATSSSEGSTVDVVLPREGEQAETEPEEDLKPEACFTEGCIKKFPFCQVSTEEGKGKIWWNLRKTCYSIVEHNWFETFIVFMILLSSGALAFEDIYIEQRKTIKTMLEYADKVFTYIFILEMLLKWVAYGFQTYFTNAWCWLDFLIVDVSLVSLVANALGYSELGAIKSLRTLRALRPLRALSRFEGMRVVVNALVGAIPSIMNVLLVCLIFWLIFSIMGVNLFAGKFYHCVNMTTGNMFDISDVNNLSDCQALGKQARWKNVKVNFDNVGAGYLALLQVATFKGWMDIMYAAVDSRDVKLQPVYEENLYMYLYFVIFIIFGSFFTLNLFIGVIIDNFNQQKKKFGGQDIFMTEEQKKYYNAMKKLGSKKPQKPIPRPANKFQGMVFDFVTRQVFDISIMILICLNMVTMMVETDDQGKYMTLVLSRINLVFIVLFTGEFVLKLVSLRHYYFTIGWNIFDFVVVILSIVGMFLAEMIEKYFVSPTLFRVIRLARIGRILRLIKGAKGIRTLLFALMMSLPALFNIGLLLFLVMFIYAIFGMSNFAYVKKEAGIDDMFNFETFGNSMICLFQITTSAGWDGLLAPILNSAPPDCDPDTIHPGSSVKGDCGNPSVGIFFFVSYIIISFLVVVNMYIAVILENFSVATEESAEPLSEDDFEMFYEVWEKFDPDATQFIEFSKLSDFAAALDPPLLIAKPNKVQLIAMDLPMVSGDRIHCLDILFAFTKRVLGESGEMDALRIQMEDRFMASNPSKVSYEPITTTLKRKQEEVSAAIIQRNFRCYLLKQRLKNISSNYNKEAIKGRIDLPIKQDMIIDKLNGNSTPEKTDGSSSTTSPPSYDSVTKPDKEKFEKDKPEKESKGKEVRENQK

SMILES	IC50 [nM]
CC(=O)Nc1cc(C(=O)NCc2cnc(OCC(F)F)c(C)c2)cc(C)n1 [Example 742, 2-acetamido-N-((6-(2,2-difluoroethoxy)-5-methylpyridin-3-yl)methyl)-6-methylisonicotinamide]	< 1000
CCc1cc(CNC(=O)c2ccnc(NC(=O)C3CC3)c2)cnc1OCC(F)(F)F [Example 711, 2-(cyclopropanecarboxamido)-N-((5-ethyl-6-(2,2,2-trifluoroethoxy)pyridin-3-yl)methyl)isonicotinamide]	< 1000
CCC(=O)Nc1cc(C(=O)NCc2ccc(OCC(C)(F)F)nc2)cc(C)n1 [Example 721, N-((6-(2,2-difluoropropoxy)pyridin-3-yl)methyl)-2-methyl-6-propionamidoisonicotinamide]	< 1000
CCc1cc(CNC(=O)c2cc(C)nc(NC(=O)C3CC3)n2)cnc1OCC(F)(F)F [Example 718, 2-(cyclopropanecarboxamido)-N-((5-ethyl-6-(2,2,2-trifluoroethoxy)pyridin-3-yl)methyl)-6-methylpyrimidine-4-carboxamide]	< 1000
CCC(=O)Nc1cc(C(=O)NCc2ccc(OCC(F)(F)F)nc2)ccn1 [Example 151, 2-propionamido-N-((6-(2,2,2-trifluoroethoxy)pyridin-3-yl)methyl)isonicotinamide]	< 1000
Cc1cc(CNC(=O)c2ccnc(NC(=O)C3CC3)c2)cnc1OCC(F)F [Example 739, 2-(cyclopropanecarboxamido)-N-((6-(2,2-difluoroethoxy)-5-methylpyridin-3-yl)methyl)isonicotinamide]	< 1000
CCC(=O)Nc1cc(C(=O)NCc2cnc(OCC(F)F)c(C)c2)cc(C)n1 [Example 740, N-((6-(2,2-difluoroethoxy)-5-methylpyridin-3-yl)methyl)-2-methyl-6-propionamidoisonicotinamide]	< 1000
O=C(NCc1ccc(COCC(F)(F)F)cc1)c1ccnc(NC(=O)C2CC2)c1 [Example 665, 2-(cyclopropanecarboxamido)-N-(4-((2,2,2-trifluoroethoxy)methyl)benzyl)isonicotinamide]	< 1000
CCC(=O)Nc1cc(C(=O)NCc2cccc(OC(F)(F)F)c2F)cc(C)n1 [Example 749, N-(2-fluoro-3-(trifluoromethoxy)benzyl)-2-methyl-6-propionamidoisonicotinamide]	< 1000
Cc1cc(CNC(=O)c2cc(C)nc(NC(=O)C(C)C)c2)nc(OCC(F)(F)F)c1 [Example 577, 2-isobutyramido-6-methyl-N-((4-methyl-6-(2,2,2-trifluoroethoxy)pyridin-2-yl)methyl)isonicotinamide]	< 1000
CCC(=O)Nc1cc(C(=O)NCc2ccc(OC(F)(F)F)c(Cl)c2)ccn1 [Example 968, N-(3-chloro-4-(trifluoromethoxy)benzyl)-2-propionamidoisonicotinamide]	< 1000
O=C(NCc1cccc(OC(F)(F)F)c1F)c1ccnc(NC(=O)C2CC2)c1 [Example 748, 2-(cyclopropanecarboxamido)-N-(2-fluoro-3-(trifluoromethoxy)benzyl)isonicotinamide]	< 1000
CC(C)C(=O)Nc1cc(C(=O)NCc2cccc(C(F)(F)F)c2F)ccn1 [Example 730, N-(2-fluoro-3-(trifluoromethyl)benzyl)-2-isobutyramidoisonicotinamide]	< 1000
CCc1cc(CNC(=O)c2ccnc(NC(=O)C(C)C)c2)cnc1OCC(F)(F)F [Example 712, N-((5-ethyl-6-(2,2,2-trifluoroethoxy)pyridin-3-yl)methyl)-2-isobutyramidoisonicotinamide]	< 1000
CC(=O)Nc1cc(C(=O)NCc2cccc(C(F)(F)F)c2F)cc(C)n1 [Example 729, 2-acetamido-N-(2-fluoro-3-(trifluoromethyl)benzyl)-6-methylisonicotinamide]	< 1000
CCC(=O)Nc1cc(C(=O)NCc2cc(OC(F)(F)F)ccc2F)ccn1 [Example 607, N-(2-fluoro-5-(trifluoromethoxy)benzyl)-2-propionamidoisonicotinamide]	< 1000
Cc1ccc(OCC(F)(F)F)nc1CNC(=O)c1ccnc(NC(=O)C(C)C)c1 [Example 566, 2-isobutyramido-N-((3-methyl-6-(2,2,2-trifluoroethoxy)pyridin-2-yl)methyl)isonicotinamide]	< 1000
COCCNc1nc(C)cc(C(=O)NC(C)c2cnc(OCC(F)(F)F)c(C)c2)n1 (single isomer, unassigned) [Example 475, 2-((2-methoxyethyl)amino)-6-methyl-N-(1-(5-methyl-6-(2,2,2-trifluoroethoxy)pyridin-3-yl)ethyl)pyrimidine-4-carboxamide]	< 1000
CCC(=O)Nc1cc(C(=O)NCc2cc(OC(F)(F)F)ccc2F)cc(C)n1 [Example 609, N-(2-fluoro-5-(trifluoromethoxy)benzyl)-2-methyl-6-propionamidoisonicotinamide]	< 1000
CC(C)C(=O)Nc1cc(C(=O)NC(C)c2ccc(OCC(F)(F)C(F)(F)F)nc2)ccn1 (single isomer, unassigned) [Example 690, 2-isobutyramido-N-(1-(6-(2,2,3,3,3-pentafluoropropoxy)pyridin-3-yl)ethyl)isonicotinamide]	< 1000
Cc1cc(CNC(=O)c2ccnc(NC(=O)C(C)C)c2)nc(OCC(F)(F)F)c1 [Example 576, 2-isobutyramido-N-((4-methyl-6-(2,2,2-trifluoroethoxy)pyridin-2-yl)methyl)isonicotinamide]	< 1000
Cc1cc(C(=O)NCc2cnc(OCC(F)(F)F)cc2C)cc(NC(=O)C(C)C)n1 [Example 516, 2-isobutyramido-6-methyl-N-((4-methyl-6-(2,2,2-trifluoroethoxy)pyridin-3-yl)methyl)isonicotinamide]	< 1000
Cc1cc(C(=O)NCc2cnc(OCC(F)(F)F)cc2C)cc(NC(=O)CC2CC2)n1 [Example 958, 2-(2-cyclopropylacetamido)-6-methyl-N-((4-methyl-6-(2,2,2-trifluoroethoxy)pyridin-3-yl)methyl)isonicotinamide]	< 1000

Other lines, results leading:

IC50 [nM]	SMILES
< 1000	CC(=O)Nc1cc(C(=O)NCc2cc(C(F)(F)F)ccc2F)cc(C)n1 [Example 574, 2-acetamido-N-(2-fluoro-5-(trifluoromethyl)benzyl)-6-methylisonicotinamide]
< 1000	Cc1cc(C(=O)NCc2cnc(OCC(F)F)c(C)c2)cc(NC(=O)C(C)C)n1 [Example 743, N-((6-(2,2-difluoroethoxy)-5-methylpyridin-3-yl)methyl)-2-isobutyramido-6-methylisonicotinamide]
< 1000	Cc1cc(CNC(=O)c2ccnc(NC(=O)C3CC3)c2)cc(OC(F)(F)F)c1 [Example 599, 2-(cyclopropanecarboxamido)-N-(3-methyl-5-(trifluoromethoxy)benzyl)isonicotinamide]
< 1000	CC(C)C(=O)Nc1cc(C(=O)NCc2ccc(OCC(F)(F)C(F)(F)F)nc2)ccn1 [Example 641, 2-isobutyramido-N-((6-(2,2,3,3,3-pentafluoropropoxy)pyridin-3-yl)methyl)isonicotinamide]
< 1000	Cc1cc(C(=O)NCc2cccc(OCC(F)(F)F)n2)cc(NC(=O)C(C)C)n1 [Example 496, 2-isobutyramido-6-methyl-N-((6-(2,2,2-trifluoroethoxy)pyridin-2-yl)methyl)isonicotinamide]
< 1000	CCc1cc(CNC(=O)c2ccnc(NC(C)=O)c2)cnc1OCC(F)(F)F [Example 709, 2-acetamido-N-((5-ethyl-6-(2,2,2-trifluoroethoxy)pyridin-3-yl)methyl)isonicotinamide]
< 1000	CCc1cc(CNC(=O)c2cc(C)nc(NC(C)=O)c2)cnc1OCC(F)(F)F [Example 713, 2-acetamido-N-((5-ethyl-6-(2,2,2-trifluoroethoxy)pyridin-3-yl)methyl)-6-methylisonicotinamide]
< 1000	O=C(NCc1cc(OC(F)(F)F)ccc1F)c1ccnc(NC(=O)C2CC2)c1 [Example 608]
< 1000	Cc1cc(C(=O)NCc2cccc(C(F)(F)F)c2)cc(NC(=O)CC2CC2)n1 [Example 961, 2-(2-cyclopropylacetamido)-6-methyl-N-(3-(trifluoromethyl)benzyl)isonicotinamide]
< 1000	CCC(=O)Nc1cc(C(=O)NCc2cnc(OCC(F)F)c(C)c2)ccn1 [Example 738, N-((6-(2,2-difluoroethoxy)-5-methylpyridin-3-yl)methyl)-2-propionamidoisonicotinamide]
